Source: US20220072061A1, “SUBSTANCE FOR TREATMENT OR PREVENTION OF DISEASES, METHOD FOR DESIGNING THE SAME, AND METHOD FOR PREPARING THE SAME” (priority 2018, published 2022)
Counter-ions that a name gives are not always drawn.

Experiments:
patients with depression = test: Clinical study against depression; format: in vivo, human
Method: 1. Clinical data: 60 cases (in total) of outpatients and inpatients with depression were enrolled, and randomly divided into a treatment group of 30 patients and a control group of 30 patients. There was no significant difference between the two groups in clinical data.
2. Diagnosis criteria: The diagnosis criteria for depression from The Diagnostic and Statistical Manual of Mental Disorders.
3. […] Patients in the control group were treated with fluoxetine, the initial and treatment doses both being 20 mg/day, for a course of 4 weeks.
4. Efficacy evaluation criteria: After 4 weeks of treatment, the patients were scored by a psychiatrist based on the Hamilton Depression Rating Scale HAMD-17. “Cured” means a HAMD-17 total score <7; “effective” means a HAMD-17 total score of 8-17; and “ineffective” means a HAMD-17 total score>17.
(§1) Total effective rate=cured rate+effective rate.

[1] = tested on: patients with ankylosing spondylitis; test: Clinical study in patients with ankylosing spondylitis; format: in vivo, human; details: number of patients (14 treatment, 13 control); after 1 month
Excerpt: 1. […] 2. […] 3. […] 4. Efficacy evaluation criteria:

[2] = tested on: patients with allergic rhinitis; test: Clinical application trial for treatment of allergic rhinitis; format: in vivo, human
Method: There was no significant difference between the two groups in clinical data and conditions. […] Diagnosis criteria: 2 or more clinical symptoms such as sneezing, clear water-like nasal discharge, nasal congestion, and nasal itching, appearing continuously or continually for 1 hour or more every day. It may be accompanied by eye symptoms such as eye itching and conjunctival hyperemia. Common signs often include pale nasal mucosa, edema, and watery nasal discharge. Positive in the allergen skin prick test. 3. […] 4. […] Total effective rate=cured rate+effective rate.

patients with urticaria = test: Clinical study against urticaria; format: in vivo, human
Method: 1. […]. There was no significant difference between the two groups in clinical data.
3. […] The patients in the control group orally took loratadine 5 mg per time, once day, for 30 days.
(§2) 4. […] Total effective rate=cured rate+markedly effective rate+effective rate.

hypertensive patients = test: Clinical study against hypertension; details: human, in vivo
Method: 1. Clinical data: In this example, totally 46 hypertensive patients were treated and observed clinically, including 25 males and 21 females, 18-75 years old, with a course of disease of 0.5 to 30 years, who were randomly divided into a treatment group of 23 patients and a control group of 23 patients. There was no significant difference between the two groups in clinical data.
2. Diagnosis criteria: According to the Guidelines for Diagnosis of Hypertension in China (2010), hypertension can be diagnosed if the systolic pressure≥140 mmHg and/or the diastolic pressure≥90 mmHg. Grade 1 hypertension: systolic pressure 140 to 159 mmHg and/or diastolic pressure 90 to 99 mmHg; Grade 2 hypertension: systolic pressure 160 to 179 mmHg and/or diastolic pressure 100 to 109 mmHg; Grade 3 hypertension: systolic pressure≥180 mmHg and/or diastolic pressure≥110 mmHg.
3. […] Patients in the control group orally took Levamlodipine Beslate and losartan potassium tablets, 3 times a day under supervision of a physician, and the dose was maintained for 3 months or more.
as §2

patients with menoxenia = test: Clinical study against menoxenia; format: in vivo, human
Excerpt: 1. Clinical data: 60 cases (in total) of outpatients and inpatients with menoxenia were enrolled, and randomly divided into a treatment group of 30 patients and a control group of 30 patients. There was no significant difference between the two groups in clinical data.
2. Diagnosis criteria: Symptoms include disorders in the menstrual cycle and menstrual period, excessive or insufficient bleeding during menstruation, and abdominal pain before and after menstruation.
3. […] Patients in the control group were orally given clomifene citrate capsules (NMPA Approval No. H31021107), 50 mg/day, started on day 5 since menstruation, for 2 consecutive months.
4. Efficacy evaluation criteria: The efficacy evaluation is based on the relevant standards in Guiding Principles for Clinical Research of New Chinese Medicines.
as §1

[3] = number of patients of 30, allergic rhinitis
[4] = number of patients of 28, chronic urticaria

## CNCCC(Oc1ccc(C(F)(F)F)cc1)c1ccccc1 (centres unmarked) [fluoxetine]
Patients with depression; cured rate+effective rate, depression, after 4 weeks
  Total effective rate (%): 76.67%
Patients with depression; number of patients of 30, HAMD-17 total score <7 after 4 weeks
  Cured: 9
Patients with depression; number of patients of 30, HAMD-17 total score >17 after 4 weeks
  Ineffective: 7
Patients with depression; number of patients of 30, HAMD-17 total score of 8-17 after 4 weeks
  Effective: 14

## O=C(O)c1cc(/N=N/c2ccc(S(=O)(=O)Nc3ccccn3)cc2)ccc1O [sulfasalazine enteric tablets, sulfasalazine]
[1]
  Effective: 5
  Ineffective: 6
  Markedly effective: 2

## CCOC(=O)N1CCC(=C2c3ccc(Cl)cc3CCc3cccnc32)CC1 [loratadine]
[2]; 6-month follow-up / after drug discontinuance
  recurrence: allergic symptoms appeared after contact with allergens after drug discontinuance
[2]; during the treatment, of 30 patients
  drug adverse reaction or drug dependence: 5 cases
[2]; [3]
  Effective: 20
  Ineffective: 10
[2]; number of patients of 30, allergic rhinitis, no recurrence for 60 days
  Cured: 0
Patients with urticaria; cured rate+markedly effective rate+effective rate, chronic urticaria
  Total effective rate (%): 53.57%
Patients with urticaria; [4]
  Cured: 0
  Ineffective: 13
Patients with urticaria; number of patients of 28, wheal subsided by 50% to 80%
  Effective: 6
Patients with urticaria; number of patients of 28, wheal subsided by 80% or more
  Markedly effective: 9

## Levamlodipine Beslate and losartan potassium
Hypertensive patients
  adverse drug reactions: 6 cases
  drug dependence: 4 cases

## CCN(CC)CCOc1ccc(C(=C(Cl)c2ccccc2)c2ccccc2)cc1 [clomifene citrate capsules, clomifene citrate]
Patients with menoxenia; after treatment
  Total effective rate (%): 66.67%
Patients with menoxenia; number of patients of 30
  Cured: 0
  Effective: 10
  Markedly effective: 10
